Tests used:
Format in all cases: functional, organism-based
Rattus norvegicus [1] = experiment: Carcinogenic activity on all sites after oral administration
Rattus norvegicus [2] = experiment: Carcinogenic activity on liver after oral administration
Rattus norvegicus [3] = experiment: Carcinogenic activity on other sites after oral administration
Rattus norvegicus [4] = experiment: Carcinogenic activity on mixed data after oral administration
Rattus norvegicus [5] = experiment: Carcinogenic activity on ear duct after oral administration
Rattus norvegicus [6] = experiment: Carcinogenic activity on breast after oral administration of the compound

SMILES | Activity (Rattus norvegicus [1]) | Activity (Rattus norvegicus [2]) | Activity (Rattus norvegicus [3]) | Activity (Rattus norvegicus [4]) | Activity (Rattus norvegicus [5]) | Activity (Rattus norvegicus [6])
Nc1nc[nH]n1 | Carcinogenic activity | Carcinogenic activity | Carcinogenic activity |  |  | 
O=C(O)CCC(=O)Nc1ccc2c(c1)Cc1ccccc1-2 | Carcinogenic activity | Carcinogenic activity |  |  |  | 
Nc1ccc2c(c1)CCc1ccccc1-2 | Carcinogenic activity |  | Carcinogenic activity | Carcinogenic activity | Carcinogenic activity | 
Cn1cnc([N+](=O)[O-])c1Sc1ncnc2[nH]cnc12 | Carcinogenic activity |  | Carcinogenic activity |  | Carcinogenic activity | 
CN(C)c1ccc(/C=C/c2ccc(F)cc2)cc1 | Carcinogenic activity |  |  |  | Carcinogenic activity | 
CN(C)c1ccc(/C=C/c2ccc(Cl)cc2)cc1 | Carcinogenic activity |  |  |  | Carcinogenic activity | 
ONc1cccc2ccccc12 | Carcinogenic activity |  | Carcinogenic activity |  |  | 
CC(=O)Nc1ccc2c(c1)Cc1ccccc1S2 | Carcinogenic activity |  | Carcinogenic activity | Carcinogenic activity | Carcinogenic activity | Carcinogenic activity
Nc1cc2ccccc2c2ccccc12 | Carcinogenic activity |  |  |  |  | Carcinogenic activity
CC(=O)Nc1cc2c(cc1I)-c1ccccc1C2 | Carcinogenic activity |  |  |  | Carcinogenic activity | 
Nc1ccc(Cc2ccc(N)c(Cl)c2)cc1Cl | Carcinogenic activity | Carcinogenic activity | Carcinogenic activity |  |  | 
ONc1ccc(/C=C/c2ccccc2)cc1 | Carcinogenic activity |  | Carcinogenic activity |  |  | 
Cc1cc2ccccc2cc1N | Carcinogenic activity |  | Carcinogenic activity |  |  | Carcinogenic activity
Nc1ccc(/N=N/c2ccccc2)cc1 | Carcinogenic activity |  | Carcinogenic activity |  |  | 
CC(=O)Nc1ccc2c(c1)Sc1ccccc1C2 | Carcinogenic activity |  | Carcinogenic activity | Carcinogenic activity | Carcinogenic activity | Carcinogenic activity
CN(C)Nc1nc(-c2ccc([N+](=O)[O-])o2)cs1 | Carcinogenic activity |  | Carcinogenic activity |  |  | 
CC(=O)N(O)c1ccc(-c2ccccc2)cc1 | Carcinogenic activity |  | Carcinogenic activity | Carcinogenic activity | Carcinogenic activity | Carcinogenic activity
Nc1ccc(-c2ccccc2)cc1F | Carcinogenic activity |  |  |  |  | Carcinogenic activity
CN(C)c1ccc2cc3ccc(N(C)C)cc3nc2c1 | Carcinogenic activity | Carcinogenic activity |  |  |  | 
CC(=O)N(O)c1ccc(/C=C/c2ccccc2)cc1 | Carcinogenic activity |  | Carcinogenic activity | Carcinogenic activity | Carcinogenic activity | Carcinogenic activity
O=CNc1nc(-c2ccc([N+](=O)[O-])o2)cs1 | Carcinogenic activity |  | Carcinogenic activity |  |  | Carcinogenic activity
COc1cc(/N=N/c2ccccc2)ccc1N | Carcinogenic activity | Carcinogenic activity | Carcinogenic activity | Carcinogenic activity | Carcinogenic activity | 

SMILES | Activity (Rattus norvegicus [1]) | Activity (Rattus norvegicus [2]) | Activity (Rattus norvegicus [3]) | Activity (Rattus norvegicus [4]) | Activity (Rattus norvegicus [5]) | Activity (Rattus norvegicus [6])
Nc1nc(N)nc(-c2ccc([N+](=O)[O-])o2)n1 | Carcinogenic activity |  |  |  |  | Carcinogenic activity
CC(=O)Nc1ccc2c(c1F)Cc1ccccc1-2 | Carcinogenic activity |  |  |  | Carcinogenic activity | Carcinogenic activity
Cc1cc(-c2ccccc2)ccc1N | Carcinogenic activity |  | Carcinogenic activity |  | Carcinogenic activity | 
CC(=O)Nc1ccc2c(c1)oc1ccccc12 | Carcinogenic activity |  |  |  | Carcinogenic activity | Carcinogenic activity
CCN(CC)c1ccc2c(c1)Cc1ccccc1-2 | Carcinogenic activity |  | Carcinogenic activity |  |  | 
CC(=O)Nc1cc(F)c2c(c1)Cc1ccccc1-2 | Carcinogenic activity |  |  |  | Carcinogenic activity | Carcinogenic activity
Nc1ccc2c(c1)Cc1cc(N)ccc1-2 | Carcinogenic activity |  |  |  |  | Carcinogenic activity
CC(=O)Nc1ccc2c(c1)Cc1cccc(NC(C)=O)c1-2 | Carcinogenic activity |  |  |  |  | Carcinogenic activity
CC(=O)Nc1ccc2c(c1)Cc1cccc(F)c1-2 | Carcinogenic activity |  |  |  | Carcinogenic activity | Carcinogenic activity
Nc1ccc2ccc3ccccc3c2c1 | Carcinogenic activity |  |  |  |  | Carcinogenic activity
Nc1ccc(-c2ccc(N)c(Cl)c2)cc1Cl | Carcinogenic activity |  | Carcinogenic activity | Carcinogenic activity | Carcinogenic activity | Carcinogenic activity
Nc1ccc(-c2cccc(F)c2)cc1 | Carcinogenic activity |  |  |  |  | Carcinogenic activity
NCC(=O)Nc1ccc2c(c1)-c1ccccc1C2 | Carcinogenic activity | Carcinogenic activity |  |  |  | 
O=CNc1ccc2c(c1)Cc1ccccc1-2 | Carcinogenic activity |  |  |  | Carcinogenic activity | Carcinogenic activity
CC(=O)Nc1ccc(/C=C/c2ccccc2)cc1 | Carcinogenic activity |  |  |  | Carcinogenic activity | Carcinogenic activity
CC(=O)Nc1nc(-c2ccc([N+](=O)[O-])o2)no1 | Carcinogenic activity | Carcinogenic activity | Carcinogenic activity |  |  | 
Cc1cccc(/C=C/c2ccc(N(C)C)cc2)c1 | Carcinogenic activity |  |  |  | Carcinogenic activity | 
Cc1cccc(/N=N/c2cc(C)ccc2N)c1 | Carcinogenic activity | Carcinogenic activity |  |  |  | 
CN(C)c1ccc(/C=C/c2ccccc2)cc1 | Carcinogenic activity |  |  |  | Carcinogenic activity | 
COc1ccc(/N=N/c2ccc(N)c(OC)c2)cc1 | Carcinogenic activity | Carcinogenic activity | Carcinogenic activity |  |  | 
Nc1cc2ccccc2cc1[N+](=O)[O-] | Carcinogenic activity |  | Carcinogenic activity |  |  | 
Nc1ccc(/C=C/c2ccc3ccccc3n2)cc1 | Carcinogenic activity |  |  |  | Carcinogenic activity | 
